Source: patent US20200131669A1, “CYCLIC PEPTIDE COMPOUND HAVING HIGH MEMBRANE PERMEABILITY, AND LIBRARY CONTAINING SAME” (Chugai Seiyaku Kabushiki Kaisha, priority 2017, published 2020)
Starred links: 1 amine or outer side, 2 acyl side, 3 side chain; linkers in the order of their positions; H or OH if unused. Positions of bridges follow the written chain, without caps; N, C: chain ends. Non-standard residues stand in square brackets, D forms with d. Residues, ends and D or L forms follow the SMILES beside them. *: point of attachment. NMeAbu(3,3-F2-piperidino) = CN[C@@H](CCN1CCCC(F)(F)C1)C(=O)O; Phe(4-CF3) = N[C@@H](Cc1ccc(C(F)(F)F)cc1)C(=O)O; NMeAla(4-thiazolyl) = CN[C@@H](Cc1cscn1)C(=O)O; NMePhe(3-Cl) = CN[C@@H](Cc1cccc(Cl)c1)C(=O)O; Tyr(3-F) = N[C@@H](Cc1ccc(O)c(F)c1)C(=O)O; hNle(7,7-F2) = N[C@@H](CCCCC(F)F)C(=O)O; NMeF = CN[C@@H](Cc1ccccc1)C(=O)O; NMeGABA = CN(CCCC(=O)[*:2])[*:1]; NMeI = CC[C@H](C)[C@H](NC)C(=O)O; hPhe = N[C@@H](CCc1ccccc1)C(=O)O; NMeL = CN[C@@H](CC(C)C)C(=O)O; NMeV = CN[C@H](C(=O)O)C(C)C; NMeA = CN[C@@H](C)C(=O)O; Piperidide = C1CCN(*)CC1; CH2CMe2OH = CC(C)(O)C*; Me2NCH2CH2 = CN(C)CC*; NBuGly = CCCCNCC(=O)O; NPrGly = CCCNCC(=O)O; Sar = CNCC(=O)O; tBu = CC(C)(C)*

Assay: Caco-2 membrane permeability, improved method as used in the following Examples (96-well, 20 to 24 h preincubation)
Format: in vitro ADME
Details: human, Caco-2, Caco-2
In short: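 Caco-2 monolayers were grown three weeks and preincubated 20–24 h at 37 °C with compound in DMEM+FaSSIF (1% DMSO) apically. The assay then used compound in FaSSIF/HBSS (1% DMSO, pH 6.0) apically and HBSS with 4% BSA (pH 7.4) basally. Basal samples were taken at 180 min for LC/MS, and Papp (cm/sec) was calculated.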

| Compound | Papp A→B at 180 min |
| --- | --- |
| CC[C@H](C)[C@@H]1NC(=O)[C@H](CC(C)C)N(C)C(=O)CCCN(C)C(=O)C[C@@H](C(=O)N2CCCCC2)NC(=O)[C@H](CC(C)C)N(C)C(=O)[C@H](C)N(C)C(=O)[C@H]([C@@H](C)O)NC(=O)[C@H](CC(C)C)N(C)C(=O)[C@H](CCc2ccccc2)NC(=O)[C@H](CC(C)C)N(C)C(=O)[C@H](Cc2ccccc2)N(C)C1=O [pd316] ([NMeGABA][NMeL]I[NMeF][NMeL][hPhe][NMeL]T[NMeA][NMeL]D-Piperidide; lactam N-11) | 1.4 ×10⁻⁶ cm/s |
| CCCN1CC(=O)N(C)[C@@H](Cc2cccc(Cl)c2)C(=O)N(C)[C@@H](CC(C)C)C(=O)N[C@@H](COC(C)(C)C)C(=O)N(C)[C@@H](CC(C)C)C(=O)N[C@H](C(=O)N2CCCCC2)CC(=O)N(C)CC(=O)N(C)[C@@H](Cc2ccccc2)C(=O)N[C@@H](COCC(C)(C)O)C(=O)N(C)[C@@H](CC(C)C)C(=O)N[C@@H]([C@@H](C)O)C1=O [pd430] ([Sar][NMeF]S(CH2CMe2OH)[NMeL]T[NPrGly][NMePhe(3-Cl)][NMeL]S(tBu)[NMeL]D-Piperidide; lactam N-11) | 1.3 ×10⁻⁶ cm/s |
| CCCCN1CC(=O)N(C)[C@@H](CCN2CCCC(F)(F)C2)C(=O)N[C@H](C(=O)N2CCCCC2)CC(=O)N(C)[C@@H](C)C(=O)N[C@@H](CC(C)C)C(=O)N(C)[C@@H](CC(C)C)C(=O)N(C)[C@@H](Cc2ccccc2)C(=O)N[C@@H](CC(C)C)C(=O)N(C)[C@@H](Cc2ccccc2)C(=O)N(C)[C@@H](C)C(=O)N[C@@H]([C@@H](C)O)C1=O [pd392] ([NMeA]L[NMeL][NMeF]L[NMeF][NMeA]T[NBuGly][NMeAbu(3,3-F2-piperidino)]D-Piperidide; lactam N-11) | 3.5 ×10⁻⁶ cm/s |
| CCCN1CC(=O)N(C)[C@@H](Cc2ccccc2)C(=O)N[C@@H](CCCCC(F)F)C(=O)N(C)[C@@H](CC(C)C)C(=O)N[C@@H]([C@@H](C)O)C(=O)N(C)CC(=O)N(C)[C@@H](Cc2ccccc2)C(=O)N(C)[C@@H](CC(C)C)C(=O)N[C@@H](COC(C)(C)C)C(=O)N(C)[C@@H](C(C)C)C(=O)N[C@H](C(=O)N2CCCCC2)CC1=O [pd336] ([NPrGly][NMeF][hNle(7,7-F2)][NMeL]T[Sar][NMeF][NMeL]S(tBu)[NMeV]D-Piperidide; lactam N-11) | 2.5 ×10⁻⁶ cm/s |

Same assay, conditions: human, Caco-2, Caco-2 (cm/sec)

| Compound | Papp A→B at 180 min |
| --- | --- |
| CC(C)C[C@@H]1NC(=O)C[C@@H](C(=O)N2CCCCC2)NC(=O)[C@H](CC(C)C)N(C)C(=O)[C@H](CC(C)C)N(C)C(=O)[C@H](Cc2ccc(C(F)(F)F)cc2)NC(=O)[C@H](CC(C)C)N(C)C(=O)[C@H]([C@@H](C)O)NC(=O)[C@H](CC(C)C)N(C)C(=O)[C@H](C)N(C)C1=O [pd153] (L[NMeA][NMeL]T[NMeL][Phe(4-CF3)][NMeL][NMeL]D-Piperidide; lactam N-9) | 1.4 ×10⁻⁶ cm/s |
| CC(C)C[C@H]1C(=O)N[C@@H](COC(C)(C)C)C(=O)N[C@@H]([C@@H](C)O)C(=O)N(C)[C@@H](Cc2ccccc2)C(=O)N[C@H](C(=O)N2CCCCC2)CC(=O)N[C@@H](C)C(=O)N(C)[C@@H](Cc2ccccc2)C(=O)N(C)[C@@H](C)C(=O)N(C)[C@@H](Cc2ccccc2)C(=O)N(C)[C@@H](CC(C)C)C(=O)N[C@@H](Cc2ccccc2)C(=O)N1C [pd237] (A[NMeF][NMeA][NMeF][NMeL]F[NMeL]S(tBu)T[NMeF]D-Piperidide; lactam N-11) | 0.089 ×10⁻⁶ cm/s |
| CC(C)C[C@@H]1NC(=O)[C@H](Cc2ccccc2)N(C)C(=O)[C@H](C)N(C)C(=O)C[C@@H](C(=O)N2CCCCC2)NC(=O)[C@H](CC(C)C)N(C)C(=O)[C@H](Cc2ccccc2)N(C)C(=O)[C@H](Cc2ccccc2)NC(=O)[C@H](Cc2cscn2)N(C)C(=O)[C@H](C)N(C)C(=O)[C@H](CC(C)C)N(C)C(=O)[C@H]([C@@H](C)O)NC1=O [pd238] ([NMeA][NMeF]LT[NMeL][NMeA][NMeAla(4-thiazolyl)]F[NMeF][NMeL]D-Piperidide; lactam N-11) | 0.088 ×10⁻⁶ cm/s |
| CCCN1CC(=O)N(C)[C@@H](CC(C)C)C(=O)N[C@@H](COC(C)(C)C)C(=O)N[C@H](C(=O)N2CCCCC2)CC(=O)N(C)[C@@H](CC(C)C)C(=O)N[C@@H](Cc2ccc(C(F)(F)F)cc2)C(=O)N(C)[C@@H](CC(C)C)C(=O)N(C)[C@@H]([C@@H](C)CC)C(=O)N[C@@H]([C@@H](C)O)C1=O [pd152] ([NMeL][Phe(4-CF3)][NMeL][NMeI]T[NPrGly][NMeL]S(tBu)D-Piperidide; lactam N-9) | 1.2 ×10⁻⁶ cm/s |
| CC(C)C[C@@H]1NC(=O)[C@H](CC(C)C)N(C)C(=O)[C@@H](C)NC(=O)C[C@@H](C(=O)N2CCCCC2)NC(=O)[C@H](Cc2ccccc2)N(C)C(=O)[C@H](Cc2ccccc2)N(C)C(=O)[C@H](C)N(C)C(=O)[C@H]([C@@H](C)O)NC(=O)[C@H](Cc2ccccc2)N(C)C(=O)[C@H](COC(C)(C)C)NC(=O)[C@H](Cc2ccccc2)N(C)C1=O [pd234] ([dA][NMeL]L[NMeF]S(tBu)[NMeF]T[NMeA][NMeF][NMeF]D-Piperidide; lactam N-11) | 0.15 ×10⁻⁶ cm/s |
| CC[C@H](C)[C@@H]1NC(=O)[C@H](CC(C)C)N(C)C(=O)[C@@H](C)NC(=O)C[C@@H](C(=O)N2CCCCC2)NC(=O)[C@H](C)N(C)C(=O)[C@H](Cc2ccccc2)N(C)C(=O)[C@H](COC(C)(C)C)NC(=O)[C@H](CC(C)C)N(C)C(=O)CN(C)C(=O)[C@H](Cc2ccc(O)c(F)c2)NC(=O)[C@H](CC(C)C)N(C)C1=O [pd124] ([dA][NMeL]I[NMeL][Tyr(3-F)][Sar][NMeL]S(tBu)[NMeF][NMeA]D-Piperidide; lactam N-11) | 0.32 ×10⁻⁶ cm/s |
| CC(C)C[C@@H]1NC(=O)[C@H](Cc2ccccc2)N(C)C(=O)[C@@H]2CCCN2C(=O)C[C@@H](C(=O)N2CCCCC2)NC(=O)[C@H](Cc2ccccc2)N(C)C(=O)[C@H](Cc2ccccc2)N(C)C(=O)[C@H](COC(C)(C)C)NC(=O)[C@H](CC(C)C)N(C)C(=O)CN(C)C(=O)[C@H]([C@@H](C)O)NC(=O)[C@H](CC(C)C)N(C)C1=O [pd203] (P[NMeF]L[NMeL]T[Sar][NMeL]S(tBu)[NMeF][NMeF]D-Piperidide; lactam N-11) | 2.1 ×10⁻⁶ cm/s |
| CC[C@H](C)[C@H]1C(=O)N[C@@H](Cc2c[nH]c3ccccc23)C(=O)N(C)CC(=O)N(C)[C@@H](C)C(=O)N[C@H](C(=O)N2CCCCC2)CC(=O)N(C)[C@@H](C)C(=O)N[C@@H](CC(C)C)C(=O)N(C)[C@@H](CC(C)C)C(=O)N(C)[C@@H](CC(C)C)C(=O)N[C@@H](C)C(=O)N(C)[C@@H](CC(C)C)C(=O)N1C [pd101] ([NMeA]L[NMeL][NMeL]A[NMeL][NMeI]W[Sar][NMeA]D-Piperidide; lactam N-11) | 0.13 ×10⁻⁶ cm/s |

Same assay, conditions: human; Papp; Table 25, cyclic peptides containing Ser(Et-2-NMe2) or Gln(Ms), not in table head; read-out: Caco-2

| Compound | Papp A→B at 180 min |
| --- | --- |
| CC(C)C[C@@H]1NC(=O)[C@H](Cc2ccccc2)N(C)C(=O)[C@H](Cc2ccccc2)N(C)C(=O)[C@H](COCCN(C)C)NC(=O)[C@H](CC(C)C)N(C)C(=O)CCCN(C)C(=O)C[C@@H](C(=O)N2CCCCC2)NC(=O)[C@H](CC(C)C)N(C)C(=O)[C@H](CC(C)C)N(C)C(=O)[C@H]([C@@H](C)O)NC(=O)[C@H](CC(C)C)N(C)C1=O [pd55] ([NMeGABA][NMeL]S(Me2NCH2CH2)[NMeF][NMeF]L[NMeL]T[NMeL][NMeL]D-Piperidide; lactam N-11) | 0.1 ×10⁻⁶ cm/s |
